Test results published in publication PMC10387993, “New pyrimidine-N-β-D-glucosides: synthesis, biological evaluation, and molecular docking investigations” (Turkish Journal of Chemistry, 2023).
≈ marks a conversion by molar mass, not a printed value. Read-outs that look alike come from different tables or passages of the source. Blank lines part the entries; values can stand above or below the compound they belong to.

How the values were obtained:
Type in all cases: cell-based
[1] = system: A549; assay: cells; settings: Homo sapiens; for LC50 (concentration causing 50% net cell loss): A549, read-out: LC50; for GI50 / IC50 / IC (total growth inhibition): A549, MTT; for IC50: read-out: IC50; for IC (total growth inhibition): read-out: TGI
Summary of the method: (§1)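 Cells were seeded at about 1 × 10^4 per well, brought to 200 μL with medium, and assessed by MTT: 4 h with MTT reagent, formazan dissolved in DMSO with Sorenson's buffer, absorbance read at 560 nm (690 nm reference). IC50 derived from percent inhibition relative to DMSO.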

[2] = system: C6 (Rat brain glioma); assay: cells; settings: Rattus norvegicus; for LC50 (concentration giving 50% net cell loss relative to time zero): read-out: LC50; for GI50 / IC50 / IC (total growth inhibition): C6, MTT; for IC50: read-out: IC50; for IC (total growth inhibition): read-out: TGI
Summary of the method: as §1

[3] = system: HT29; assay: cells; settings: Homo sapiens; for LC50 (concentration giving 50% net cell loss relative to time zero): HT-29, read-out: LC50; for GI50 / IC50 / IC (total growth inhibition): HT-29, HT29, MTT; for IC50: read-out: IC50; for IC (total growth inhibition): read-out: TGI
Summary of the method: as §1

[4] = system: HeLa; assay: cells; settings: Homo sapiens; for GI50 / IC50 / IC (total growth inhibition): MTT; for IC50: read-out: IC50; for IC (total growth inhibition): read-out: TGI; for LC50 (concentration causing 50% net cell loss): read-out: LC50
Summary of the method: as §1

[5] = system: Hep3B; assay: cells; settings: Homo sapiens; for GI50 / IC50 / IC (total growth inhibition): MTT; for IC50: read-out: IC50; for IC (total growth inhibition): read-out: TGI; for LC50 (concentration causing 50% net cell loss relative to time zero): read-out: LC50
Summary of the method: as §1

[6] = system: MCF7; assay: cells; settings: Homo sapiens; for LC50 (concentration causing 50% net cell loss relative to time zero): MCF7, read-out: LC50; for GI50 / IC50 / IC (total growth inhibition): MCF7, MTT; for IC50: read-out: IC50; for IC (total growth inhibition): read-out: TGI
Summary of the method: as §1

[7] = in vitro; settings: human, LC50
Summary of the method: as §1

[8] = system: normal FL cells; assay: cells; settings: FL normal cells, MTT; for IC50: read-out: IC50; for IC (total growth inhibition): read-out: TGI
Summary of the method: as §1

[9] = LDH cytotoxic activity assay, C6; settings: rat, C6 glioma cells; for cytotoxicity at 24 h, 25 μg/mL: C6, 25 μg/mL; for cytotoxicity at 24 h, 50 μg/mL: C6, 50 μg/mL; for cytotoxicity at 24 h, 75 μg/mL: C6, 75 μg/mL; for cytotoxicity at 24 h, 100 μg/mL: C6, 100 μg/mL
Summary of the method: (§2)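 About 5 × 10^3 cells per well, in triplicate, exposed to 25, 50, 75 and 100 μg/mL of test compound for 24 h at 37 °C, 5% CO2. Cells grown in DMEM or RPMI 1640 with 10% FBS. LDH activity read as absorbance at 492–630 nm.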

[10] = LDH cytotoxic activity assay, HeLa; settings: human, HeLa cells
Summary of the method: as §2

[11] = LDH cytotoxic activity assay, HT29; settings: human, HT29 cells; for cytotoxicity at 24 h, 25 μg/mL: HT29, 25 μg/mL; for cytotoxicity at 24 h, 50 μg/mL: HT29, 50 μg/mL; for cytotoxicity at 24 h, 75 μg/mL: HT29, 75 μg/mL; for cytotoxicity at 24 h, 100 μg/mL: HT29, 100 μg/mL
Summary of the method: as §2

[12] = system: E. coli ATCC 25922; assay: Microdilution MIC assay; settings: Escherichia coli, ATCC25922; E. coli ATCC 25922, 24 h at 35 °C
Method: (§3) MIC values of the compounds against bacterial strains were determined on the basis of a microwell dilution method. […] […]. Growth of microorganisms was determined visually after incubation for 24 h at 35 °C. The lowest concentration at which there was no visible growth (turbidity) was taken as the MIC.

[13] = system: E. coli ESBL ATCC 35218; assay: Microdilution MIC assay; settings: Escherichia coli, ATCC35218; E. coli ESBL ATCC 35218, 24 h at 35 °C
Method: as §3

[14] = system: E. faecalis ATCC 29212; assay: Microdilution MIC assay; settings: Enterococcus faecalis, ATCC29212, 24 h, E. faecalis ATCC 29212, 24 h at 35 °C; read-out: MIC
Method: as §3

[15] = system: S. aureus ATCC 25923; assay: Microdilution MIC assay; settings: Staphylococcus aureus, ATCC25923, 24 h, S. aureus ATCC 25923, 24 h at 35 °C; read-out: MIC
Method: as §3

[16] = system: S. gordonii NCTC 7870; assay: Microdilution MIC assay; settings: Streptococcus gordonii, NCTC7870; S. gordonii NCTC 7870, 24 h at 35 °C
Method: as §3

[17] = system: S. mutans ATCC 35668; assay: Microdilution MIC assay; settings: S. mutans ATCC 35668, 24 h at 35 °C
Method: as §3

[18] = Streptococcus mutans, ATCC35668, 24 h, read-out: MIC

GI50 [1]: 19.4 µg/mL (≈ 45.8 µM)
IC50 [1]: > 500 µg/mL
GI50 [2]: 8.13 µg/mL (≈ 19.2 µM)
IC50 [2]: 27.8 µg/mL (≈ 65.4 µM)
GI50 [3]: 4.63 µg/mL (≈ 10.9 µM)
IC50 [3]: 26.7 µg/mL (≈ 62.9 µM)
GI50 [4]: 21.9 µg/mL (≈ 51.6 µM)
IC50 [4]: 52.2 µg/mL (≈ 123 µM)
GI50 [5]: 4.4 µg/mL (≈ 10.4 µM)
IC50 [5]: 65.5 µg/mL (≈ 154 µM)
GI50 [6]: 3.44 µg/mL (≈ 8.1 µM)
IC50 [6]: > 500 µg/mL
MIC [12]: > 1000 µg/mL
MIC [13]: > 1000 µg/mL
MIC [14]: 250 µg/mL (≈ 589 µM)
MIC [15]: 250 µg/mL (≈ 589 µM)
MIC [16]: 250 µg/mL (≈ 589 µM)
MIC [17]: 125 µg/mL (≈ 294 µM)
MIC [17, 18]: 62.5 to 125 µg/mL (≈ 147 to 294 µM)
Structure (SMILES): Cc1cccc(-c2cc(-c3ccccn3)nc(N[C@@H]3O[C@H](CO)[C@@H](O)[C@H](O)[C@H]3O)n2)c1 [Compound 4, N-[4-(3-methylphenyl)-6-pyridin-2-ylpyrimidin-2-yl]-β-D-glucopyranosylamine]
LC50 (concentration causing 50% net cell loss) [1]: > 500 µg/mL
IC (total growth inhibition) [1]: > 500 µg/mL
LC50 (concentration giving 50% net cell loss relative to time zero) [2]: 77.4 µg/mL (≈ 182 µM)
IC (total growth inhibition) [2]: 20.5 µg/mL
LC50 (concentration giving 50% net cell loss relative to time zero) [3]: > 500 µg/mL
IC (total growth inhibition) [3]: 31.9 µg/mL
IC (total growth inhibition) [4]: 46 µg/mL
LC50 (concentration causing 50% net cell loss) [4]: 116 µg/mL (≈ 272 µM)
IC (total growth inhibition) [5]: 67.8 µg/mL
LC50 (concentration causing 50% net cell loss relative to time zero) [5]: > 500 µg/mL
LC50 (concentration causing 50% net cell loss relative to time zero) [6]: > 500 µg/mL
IC (total growth inhibition) [6]: > 500 µg/mL
LC50 (concentration causing 50% net cell loss) [7]: > 500 µg/mL
GI50 [8]: 6.77 µg/mL (≈ 15.9 µM)
IC50 [8]: 78.1 µg/mL (≈ 184 µM)
IC (total growth inhibition) [8]: 79.8 µg/mL
cytotoxicity at 24 h, 25 μg/mL [9]: 22.1%
cytotoxicity at 24 h, 50 μg/mL [9]: 49.3%
cytotoxicity at 24 h, 75 μg/mL [9]: 68.9%
cytotoxicity at 24 h, 100 μg/mL [9]: 89.2%
cytotoxicity at 24 h, 25 μg/mL [10]: 26.9%
cytotoxicity at 24 h, 50 μg/mL [10]: 64.3%
cytotoxicity at 24 h, 75 μg/mL [10]: 77.1%
cytotoxicity at 24 h, 100 μg/mL [10]: 97.2%
cytotoxicity at 24 h, 25 μg/mL [11]: 28.2%
cytotoxicity at 24 h, 50 μg/mL [11]: 35.7%
cytotoxicity at 24 h, 75 μg/mL [11]: 62.6%
cytotoxicity at 24 h, 100 μg/mL [11]: 74.9%

GI50 [1]: 23.7 µg/mL (≈ 55.8 µM)
IC50 [1]: > 500 µg/mL
GI50 [2]: 4.56 µg/mL (≈ 10.7 µM)
IC50 [2]: 33.5 µg/mL (≈ 78.9 µM)
GI50 [3]: 4.12 µg/mL (≈ 9.71 µM)
IC50 [3]: 72.6 µg/mL (≈ 171 µM)
GI50 [4]: > 500 µg/mL
IC50 [4]: > 500 µg/mL
GI50 [5]: 3.61 µg/mL (≈ 8.5 µM)
IC50 [5]: 20.1 µg/mL (≈ 47.4 µM)
GI50 [6]: 2.53 µg/mL (≈ 5.96 µM)
IC50 [6]: 66.8 µg/mL (≈ 157 µM)
MIC [12]: > 1000 µg/mL
MIC [13]: > 1000 µg/mL
MIC [14]: > 1000 µg/mL
MIC [16]: 125 µg/mL (≈ 294 µM)
MIC [17, 18]: 500 µg/mL (≈ 1180 µM)
Structure (SMILES): Cc1cccc(-c2cc(-c3cccnc3)nc(N[C@@H]3O[C@H](CO)[C@@H](O)[C@H](O)[C@H]3O)n2)c1 [Compound 5, N-[4-(3-methylphenyl)-6-pyridin-3-ylpyrimidin-2-yl]-β-D-glucopyranosylamine]
LC50 (concentration causing 50% net cell loss) [1]: > 500 µg/mL
IC (total growth inhibition) [1]: > 500 µg/mL
LC50 (concentration giving 50% net cell loss relative to time zero) [2]: 249 µg/mL (≈ 587 µM)
IC (total growth inhibition) [2]: 18.1 µg/mL
LC50 (concentration giving 50% net cell loss relative to time zero) [3]: > 500 µg/mL
IC (total growth inhibition) [3]: 126 µg/mL
IC (total growth inhibition) [4]: > 500 µg/mL
LC50 (concentration causing 50% net cell loss) [4]: > 500 µg/mL
IC (total growth inhibition) [5]: 20.5 µg/mL
LC50 (concentration causing 50% net cell loss relative to time zero) [5]: > 500 µg/mL
LC50 (concentration causing 50% net cell loss relative to time zero) [6]: > 500 µg/mL
IC (total growth inhibition) [6]: 75.7 µg/mL
LC50 (concentration causing 50% net cell loss) [7]: > 500 µg/mL
GI50 [8]: 4.16 µg/mL (≈ 9.8 µM)
IC50 [8]: 25.3 µg/mL (≈ 59.7 µM)
IC (total growth inhibition) [8]: 25.8 µg/mL
cytotoxicity at 24 h, 25 μg/mL [9]: 26.9%
cytotoxicity at 24 h, 50 μg/mL [9]: 44.1%
cytotoxicity at 24 h, 75 μg/mL [9]: 62.6%
cytotoxicity at 24 h, 100 μg/mL [9]: 87.1%
cytotoxicity at 24 h, 25 μg/mL [10]: 19.8%
cytotoxicity at 24 h, 50 μg/mL [10]: 35.3%
cytotoxicity at 24 h, 75 μg/mL [10]: 40.3%
cytotoxicity at 24 h, 100 μg/mL [10]: 54.3%
cytotoxicity at 24 h, 25 μg/mL [11]: 24.6%
cytotoxicity at 24 h, 50 μg/mL [11]: 39.4%
cytotoxicity at 24 h, 75 μg/mL [11]: 75.9%
cytotoxicity at 24 h, 100 μg/mL [11]: 96.8%
